Where no end group is shown, it is not given here.
Assays:
spleen cells = assay: Th1/Th2 cytokine profiling assay (Ovalbumin-restimulated spleen cells, CBA kit); format: cell-based, Balb/c mice; details: 10 micrograms per ml; Ovalbumin restimulation; 72 hours
Description: The Balb/c mice (originated in 1923, it is a popular strain and is used in many different research disciplines. Also classified as an inbred from the production of 20 or more successive brother-sister matings, the Balb/c mouse is albino and small in size) were immunized on Days 1, 15, and 29 with Ovalbumin (Ovalbumin is the main protein found in egg white, commonly used to stimulate an immunological reaction in test animals) in PBS (5 micrograms/injection). On day 50, spleens of the mice were harvested (3 weeks after last boost with Ovalbumin). Cells were cultured (2×10^5/well in triplicate) and incubated with culture medium or test peptides—10 micrograms per ml—for 30 min. Thereafter, additional Ovalbumin was added to the cells at 10 micrograms/ml for in vitro restimulation of the cells. 72 hours later, cell supernatants were harvested and assayed using the Becton Dickinson Mouse Th1/Th2 Cytokine CBA Kit.

[1] = tested on: Primary Human endothelial cells (HUVEC); assay: Endothelial cell migration assay; format: cell-based; details: 10 micrograms per ml, 22 hours, combination peptide 1:peptide 2 0.95 mole:1.05 mole
Protocol: Thereafter, designated concentration of testing peptides—10 micrograms per ml—was added in duplicate wells.

[2] = tested on: hepatitis B virus (HBV) ayw strain; assay: HBV experimental assay system, HepG2-2.2.15, secreted HBV DNA by TaqMan PCR; format: cell-based; details: 10 micrograms per ml, HepG2-2.2.15 cells, six days
HCMV strain AD169 = assay: HCMV plaque formation assay in MRC-5 cells; format: cell-based; details: 10 micrograms per ml, 7-10 days
Description: Ganciclovir was used as positive control.

HUVEC = assay: Endothelial tube formation assay; format: cell-based, human; details: 10 micrograms per ml, 20 hours, combination peptide 1:peptide 2 1.10 mole:0.90 mole
Protocol: The endothelial tube formation assay is based on the ability of endothelial cells to form three-dimensional capillary-like tubular structures when cultured on a gel of basement membrane extract. The endothelial tube formation assay represents a powerful model for studying inhibition and induction of angiogenesis. Pre-labeled HUVEC with Calcein AM were seeded in a 96-well culture plate coated with extracellular metrix (Chemicon international Cat. ECM625) and treated with test peptides—10 micrograms per ml—in full growth medium. Positive control was vehicle only. The endothelial cells were allowed to form tubes foe 20 hours and were then examined under an inverted fluorescent microscope. Duplicate wells for each treatment were photographed and quantitatively analyzed for an average tubule length using image analysis software ImageProPlus. Raw data were expressed as average tubule lengths in pixels±standard deviation. Statistic p values were computed using the Student's t-test.

Substance	IFNγ spleen cells; TH1 response (% of control) (spleen cells)	IL-2 spleen cells (% of control) (spleen cells)	IL-4 spleen cells; TH2 response (% of control) (spleen cells)	IL-5 spleen cells; TH2 response (% of control) (spleen cells)	TNF-a spleen cells; TH1 response (% of control) (spleen cells)	inhibition of the migration of human endothelial cells [1] [%]	inhibition of HBV replication as compared to the virus control infection [2]	inhibition of HCMV plaque formation as compared to the virus control experiment (HCMV strain AD169)	inhibition of the tube formation of human endothelial cells (HUVEC)
Glu-Ile-Gly-Asp-Glu-Glu-Asn-Ser-Ala-Lys-Phe-Pro-Ile-NH2 (EIGDEENSAKFPI-NH2) [Peptide 1]	149.4 % of control	212.4 % of control	163.3 % of control	115.8 % of control	155.5 % of control	53	no effect	5.8%	
Phe-Arg-Trp-Gly-Lys-Pro-Val-Gly-Lys-Lys-Arg-Arg-Pro-Val-Lys-Val-Tyr-Pro-Asn-Gly-Ala-Glu-Asp-Glu-Ser-Ala-Glu-Ala-Phe-Pro-Leu-Glu-OH (FRWGKPVGKKRRPVKVYPNGAEDESAEAFPLE-OH) [Peptide 2]	113.7 % of control	137.1 % of control	0.0 % of control	106.3 % of control	138.0 % of control	41	8.4%	does not inhibit	did not inhibit
